Patent US20170367338A1, “COMPOSITIONS AND METHODS FOR IMPROVING AGRONOMIC CHARACTERISTICS OF PLANTS” (MONSANTO TECHNOLOGY LLC, priority 2014, published 2017)
In brackets after ≈: the same amount, converted by molar mass. Where two headings read alike, the source gives them in different places.

Key:
[1] = assay type: in vivo; settings: three female mice, observed up to 14 days
Experimental: Acute oral toxicity testing was performed in mice in accordance with test method P203.UDP, as administered by Eurofins/Product Safety Laboratories (Dayton, New Jersey). CD-1/Swiss derived albino mice were obtained and group housed in suspended solid bottom caging. The mice were fed rodent chow and filtered tap water was supplied ad libitum. Following acclimation to the laboratory setting, a group of animals was fasted overnight by removing food from the cages. After the fasting period, three female mice were selected based on vitality and initial body weights. The individual compound doses were calculated from these body weights.
The test substance was prepared as a 1% (50 mg/kg) or 5% (500 mg/kg) weight to weight (w/w) mixture in a 0.5% w/w solution of carboxymethylcellulose (CMC) in distilled water. A tissue homogenizer was used to create a homogeneous mixture. A dose of 50 or 500 mg/kg was administered to three healthy mice per dose level by oral intubation using a ball-tipped gavage needle attached to a syringe. After administration, the animals were returned to their cages, and feed was replaced immediately after dosing.
Body weights were recorded prior to initiation and on Days 7 and 14 or a soon as possible after death.

[2] = test system: Heterodera glycines (SCN); assay: Seed treatment test of soybean cyst nematode on soybean; assay type: in vivo; settings: Heterodera glycines, 672 h, test a, read-out: percent cyst reduction relative to control blank treatment
In short: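 Seeds (1 g cucumber for RKN, soybean for SCN) coated with compound in 500 ul acetone, air-dried, sown in sandy soil. Pots inoculated 3 days later with 1000 eggs per pot. Galling rated 14 days (RKN) or 28 days (SCN) after inoculation.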

root knot nematode (RKN) = assay: RKN greenhouse soil assay on cucumber plants; assay type: in vivo; settings: Radex emulsifiable concentrate formulation (6.25% active ingredient)
Meloidogyne incognita [3] = assay: M. incognita miniaturized greenhouse assay on cucumber seedlings; assay type: in vivo; settings: 1 ppm; Table 1C test a
Experimental: The test compound is dissolved in an acetone solution and added to water. A sprouted cucumber seedling is placed into a vial with dry sand and the water-chemical solution is added immediately. Twenty four hours later Meloidogyne incognita eggs are added to the vials and 10 to 12 days later the roots are evaluated for nematode galling.
Cucumber seeds are sprouted for 3 days in moist paper towels. Acceptable sprouts should be 3 to 4 cm long with several lateral roots just emerging. Stock solutions of chemistry are prepared in a mixture of acetone and Triton X100 (412 mg in 500 mL) to a final concentration of 5 mg/mL. The chemical stock solution is then added to 10 mL deionized water plus 0.015% Triton X100 and mixed thoroughly. This is enough to test each condition in triplicate. Ten mL dry sand is added to each vial. At this time the solubility of the chemistry is visually determined and recorded as either ppt (large precipitates) or cloudy (fine precipitates). Seedlings are planted by tilting the vial and laying the seedling in the correct orientation so that the cotyledons are just above the sand and then tilting back to cover the radicles with sand. 3.3 ml water/chemical mix is added to each vial and the vials placed in racks under fluorescent light banks. The vials are inoculated two days after planting by adding 500 vermiform M. incognita eggs to each vial in 50 uL of deionized or spring water. The vials are then kept under the fluorescent lamps at ambient room temperature and watered as needed with 1mL deionized water, usually twice during duration of test. Harvest of the cucumber plants is done 10 to 12 days after inoculation by washing sand off the roots. A root gall rating and visual phytotoxicity rating is assigned using the following scales: Gall rating scale (Gall: % root mass galled): 0=0-5%; 1=6-20%; 2=21-50%; and 3=51-100%. The average of the triplicate gall rating is then calculated: green=0.00-0.33 (no galls); yellow=0.67-1.33 (mild galling); orange=1.67-2.33 (moderate galling); red=2.67-3.00 (severe galling). Visual phytotoxicity scale is also assigned (Vis. tox; visual reduction in root mass compared to the control): rs1=mild stunting; rs2=moderate stunting; rs3=severe stunting.

[4] = test system: Caenorhabditis elegans ced-3(n717) and ced-4(N1162) mutants; assay: Susceptibility of C. elegans apoptosis mutants on NGM agar plates; assay type: in vivo; settings: 10μg/ml on NGM agar plates
Meloidogyne incognita [5] = assay: Summer field evaluation of pre-plant incorporated compounds on squash; assay type: in vivo; settings: 4 kg/ha
In short: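 Compound in acetone/Triton X-100 emulsion mixed into sand/silt loam with galled tomato roots, filling top 15 cm of field plots (pre-plant incorporated), 6 replicates. Plots inoculated with 100k M. incognita eggs/larvae at 5 cm depth. Squash cv. Liberator III transplanted 4 days after treatment.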

C. elegans = assay: Three day C. elegans well assay; assay type: in vivo; settings: Caenorhabditis elegans
In short: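 Contact assay in wells: DMSO dilutions (4 ul from 100× stocks at 10 mg/ml) with bacterial feed in M9 buffer plus ampicillin and nystatin. L1 (starvation-arrested) or L4 worms added, shaken at 20° C. Scored at 4, 24, 48 and 72 hours.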

Structure (SMILES) | acute oral toxicity: mortality and signs ([1]; 50 mg/kg oral) | acute oral toxicity: mortality and signs ([1]; 500 mg/kg oral) | pest or weed control at 0.375 mg/g ([2]; 0.375 mg ai/gram seed) [%] | pest or weed control at 1.5 mg/g ([2]; 1.5 mg ai/gram seed) [%] | percent control (galling reduction), Radex 1 mg/kg (root knot nematode (RKN)) [%] | 1 ppm gall rating (Meloidogyne incognita [3]) | susceptibility of ced-3 and ced-4 mutants versus wild-type C. elegans (N2 Bristol), including time to mortality [4] | control of M. incognita by PPI application (Meloidogyne incognita [5]) | EC50 (C. elegans; 24 h, L1 larvae, one day of exposure, read-out: EC50 L1 1D) [µg/mL] | EC50 (C. elegans; 24 h, L4 larvae, one day of exposure, read-out: EC50 L4 1D) [µg/mL] | EC50 (C. elegans; 48 h, L1 larvae, two days of exposure, read-out: EC50 L1 2D) [µg/mL] | EC50 (C. elegans; 48 h, L4 larvae, two days of exposure, read-out: EC50 L4 2D) [µg/mL] | EC50 (C. elegans; 72 h, L1 larvae, three days of exposure, read-out: EC50 L1 3D) [µg/mL] | EC50 (C. elegans; 72 h, L4 larvae, three days, effects on the second generation larvae, read-out: EC50 L4 3D (F1)) [µg/mL]
c1ccc(-c2noc(-c3cccs3)n2)cc1 [compound 1822] | all animals survived | all animals died within three days | 58 | 70 | 98 | 0 (0=0-5%) | – | – | – | – | – | – | – | –
Cc1cc(Cl)ccc1-c1noc(-c2ccco2)n1 [compound 5823] | – | – | – | – | – | – | No observable phenotypic difference in susceptibility | excellent control | 0.4 (≈ 1.53 µM) | 1.6 (≈ 6.14 µM) | 0.4 (≈ 1.53 µM) | 0.4 (≈ 1.53 µM) | 0.4 (≈ 1.53 µM) | 0.4 (≈ 1.53 µM)
